Data published in patent publication US11572590B2, “Methods for evaluating tumor cell spheroids using 3D microfluidic cell culture device” (Dana-Farber Cancer Institute, Inc., priority 2017, dated 2023).
Where two headings read alike, the source gives them in different places.

Columns and labels:
Test in all cases: SelectScreen Kinase Profiling, single point inhibition and IC50 for off-target kinases
Assay type in all cases: biochemical
off-target kinases [1] = biological target: off-target kinases (Homo sapiens, UniProt Q9BYT3); settings: STK33, LanthaScreen Binding
off-target kinases [2] = biological target: off-target kinases (Homo sapiens, UniProt P53350); settings: PLK1, ZLYTE, ATP Km app
off-target kinases [3] = biological target: off-target kinases (Homo sapiens, UniProt P22607, K650M); settings: FGFR3 K650M, mutant y, LanthaScreen Binding
off-target kinases [4] = biological target: off-target kinases (Homo sapiens, UniProt P00519); settings: ABL1, ATP Km app, ZLYTE
off-target kinases [5] = biological target: off-target kinases (Homo sapiens, UniProt P30291); settings: WEE1, LanthaScreen Binding
off-target kinases [6] = biological target: off-target kinases (Homo sapiens, UniProt P49841); settings: GSK3B (GSK3 beta), ZLYTE, ATP Km app
off-target kinases [7] = biological target: off-target kinases (Homo sapiens, UniProt P24723); settings: PRKCH (PKC eta), ZLYTE, ATP Km app
off-target kinases [8] = biological target: off-target kinases (Homo sapiens, UniProt Q13705); settings: ACVR2B, LanthaScreen Binding
off-target kinases [9] = biological target: off-target kinases (Homo sapiens, UniProt P50613); settings: CDK7/cyclin H/MNAT1, Adapta, ATP Km app
off-target kinases [10] = biological target: off-target kinases (Homo sapiens, UniProt Q9Y572); settings: RIPK3, LanthaScreen Binding
off-target kinases [11] = biological target: T1, off-target kinases (Homo sapiens, UniProt Q13976); settings: PRKG1, ZLYTE, ATP Km app
T1 sequence (Q13976 1-671): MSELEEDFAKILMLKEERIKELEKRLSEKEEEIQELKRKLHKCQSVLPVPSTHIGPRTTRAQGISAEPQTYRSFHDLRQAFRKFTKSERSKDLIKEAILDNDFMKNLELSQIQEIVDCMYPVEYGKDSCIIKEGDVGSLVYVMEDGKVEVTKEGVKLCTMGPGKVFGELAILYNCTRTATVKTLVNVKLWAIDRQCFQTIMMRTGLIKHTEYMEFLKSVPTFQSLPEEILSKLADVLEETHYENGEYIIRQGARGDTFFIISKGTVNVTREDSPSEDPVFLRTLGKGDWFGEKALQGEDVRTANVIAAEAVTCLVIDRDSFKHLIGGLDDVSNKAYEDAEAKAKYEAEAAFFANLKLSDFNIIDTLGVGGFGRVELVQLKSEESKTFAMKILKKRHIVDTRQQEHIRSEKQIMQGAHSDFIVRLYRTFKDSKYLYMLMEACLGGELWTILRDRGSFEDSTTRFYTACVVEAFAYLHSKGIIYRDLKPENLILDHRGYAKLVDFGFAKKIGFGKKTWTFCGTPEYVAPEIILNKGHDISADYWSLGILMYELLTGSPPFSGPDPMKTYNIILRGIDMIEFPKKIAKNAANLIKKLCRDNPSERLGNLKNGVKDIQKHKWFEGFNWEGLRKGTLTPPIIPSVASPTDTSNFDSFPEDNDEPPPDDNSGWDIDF

Chain of off-target kinases (Homo sapiens, UniProt Q13705) (Q13705 19-512): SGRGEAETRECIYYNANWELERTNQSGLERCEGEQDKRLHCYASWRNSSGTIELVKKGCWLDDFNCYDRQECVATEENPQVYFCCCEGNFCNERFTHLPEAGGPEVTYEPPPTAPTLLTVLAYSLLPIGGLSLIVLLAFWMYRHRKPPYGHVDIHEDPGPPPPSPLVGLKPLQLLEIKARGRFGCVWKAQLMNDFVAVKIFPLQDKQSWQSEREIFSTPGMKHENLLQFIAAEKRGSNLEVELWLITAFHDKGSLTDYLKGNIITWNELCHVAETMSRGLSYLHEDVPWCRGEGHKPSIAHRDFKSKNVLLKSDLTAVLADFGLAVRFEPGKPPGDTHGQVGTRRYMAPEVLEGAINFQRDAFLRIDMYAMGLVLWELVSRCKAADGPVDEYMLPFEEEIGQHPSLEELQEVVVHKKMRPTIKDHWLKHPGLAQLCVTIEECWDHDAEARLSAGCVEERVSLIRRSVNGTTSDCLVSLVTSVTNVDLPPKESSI
Chain of off-target kinases (Homo sapiens, UniProt Q9BYT3) (Q9BYT3 whole entry): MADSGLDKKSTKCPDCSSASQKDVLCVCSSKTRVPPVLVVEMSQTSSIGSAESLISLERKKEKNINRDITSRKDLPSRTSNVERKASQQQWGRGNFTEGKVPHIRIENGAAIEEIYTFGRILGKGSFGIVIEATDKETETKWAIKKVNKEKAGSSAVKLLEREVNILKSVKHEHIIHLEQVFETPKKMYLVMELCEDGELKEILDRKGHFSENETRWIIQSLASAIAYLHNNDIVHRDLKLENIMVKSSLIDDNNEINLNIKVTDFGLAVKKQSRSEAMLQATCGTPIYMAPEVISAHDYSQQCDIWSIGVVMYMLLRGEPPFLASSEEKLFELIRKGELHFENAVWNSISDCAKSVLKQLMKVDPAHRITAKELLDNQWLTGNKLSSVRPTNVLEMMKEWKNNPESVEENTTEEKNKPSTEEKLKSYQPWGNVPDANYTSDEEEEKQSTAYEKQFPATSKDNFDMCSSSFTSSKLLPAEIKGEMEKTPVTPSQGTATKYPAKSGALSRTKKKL
Chain of off-target kinases (Homo sapiens, UniProt P22607, K650M) (P22607 23-806 K650M): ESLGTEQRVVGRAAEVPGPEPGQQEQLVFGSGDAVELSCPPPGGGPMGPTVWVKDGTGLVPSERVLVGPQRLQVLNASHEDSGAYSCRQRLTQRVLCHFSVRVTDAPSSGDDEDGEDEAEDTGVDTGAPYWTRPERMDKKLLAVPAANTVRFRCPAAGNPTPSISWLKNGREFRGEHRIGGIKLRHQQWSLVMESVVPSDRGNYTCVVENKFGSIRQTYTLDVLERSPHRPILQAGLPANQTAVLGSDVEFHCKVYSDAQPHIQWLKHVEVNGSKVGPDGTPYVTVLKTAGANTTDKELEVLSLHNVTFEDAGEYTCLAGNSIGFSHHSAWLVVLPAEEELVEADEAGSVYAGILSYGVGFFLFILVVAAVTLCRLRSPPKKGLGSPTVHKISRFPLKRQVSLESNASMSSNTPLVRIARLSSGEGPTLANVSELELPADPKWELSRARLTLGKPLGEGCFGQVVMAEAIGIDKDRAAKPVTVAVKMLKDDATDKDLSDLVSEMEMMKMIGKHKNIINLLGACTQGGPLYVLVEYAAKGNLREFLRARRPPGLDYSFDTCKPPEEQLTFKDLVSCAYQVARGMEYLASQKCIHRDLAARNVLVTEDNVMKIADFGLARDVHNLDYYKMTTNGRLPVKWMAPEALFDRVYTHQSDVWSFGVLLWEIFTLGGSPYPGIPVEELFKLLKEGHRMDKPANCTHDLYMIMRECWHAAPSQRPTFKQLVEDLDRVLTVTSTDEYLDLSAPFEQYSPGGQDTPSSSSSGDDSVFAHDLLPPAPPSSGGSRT
Chain of off-target kinases (Homo sapiens, UniProt P49841) (P49841 whole entry): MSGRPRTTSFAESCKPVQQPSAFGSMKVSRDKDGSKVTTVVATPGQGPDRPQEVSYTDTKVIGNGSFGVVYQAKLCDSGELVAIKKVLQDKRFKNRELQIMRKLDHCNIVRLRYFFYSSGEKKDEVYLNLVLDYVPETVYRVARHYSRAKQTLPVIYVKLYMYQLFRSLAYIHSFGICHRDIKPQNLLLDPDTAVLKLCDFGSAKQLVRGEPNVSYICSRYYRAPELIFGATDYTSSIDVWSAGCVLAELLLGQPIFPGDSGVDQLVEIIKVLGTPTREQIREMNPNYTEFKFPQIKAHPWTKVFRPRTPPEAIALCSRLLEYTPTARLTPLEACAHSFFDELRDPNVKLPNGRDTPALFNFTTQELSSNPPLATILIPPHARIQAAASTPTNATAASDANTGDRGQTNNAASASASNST
Chain of off-target kinases (Homo sapiens, UniProt P53350) (P53350 whole entry): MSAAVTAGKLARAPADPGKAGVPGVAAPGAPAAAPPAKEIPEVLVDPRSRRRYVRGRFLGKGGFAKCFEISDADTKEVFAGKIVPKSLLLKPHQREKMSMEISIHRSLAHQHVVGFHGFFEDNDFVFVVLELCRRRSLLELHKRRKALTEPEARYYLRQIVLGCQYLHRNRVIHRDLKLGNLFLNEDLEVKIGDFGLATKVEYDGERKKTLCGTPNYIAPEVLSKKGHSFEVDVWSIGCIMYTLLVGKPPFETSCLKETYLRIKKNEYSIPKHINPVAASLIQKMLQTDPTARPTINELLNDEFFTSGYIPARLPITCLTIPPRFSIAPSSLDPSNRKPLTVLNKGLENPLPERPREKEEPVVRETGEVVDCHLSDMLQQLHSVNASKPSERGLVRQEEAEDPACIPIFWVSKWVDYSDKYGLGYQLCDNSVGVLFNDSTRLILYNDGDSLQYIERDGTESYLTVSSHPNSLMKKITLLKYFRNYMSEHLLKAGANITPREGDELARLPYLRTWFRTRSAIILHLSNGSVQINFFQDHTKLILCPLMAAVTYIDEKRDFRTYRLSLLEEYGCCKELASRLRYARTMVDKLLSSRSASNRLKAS
Chain of off-target kinases (Homo sapiens, UniProt P00519) (P00519 whole entry): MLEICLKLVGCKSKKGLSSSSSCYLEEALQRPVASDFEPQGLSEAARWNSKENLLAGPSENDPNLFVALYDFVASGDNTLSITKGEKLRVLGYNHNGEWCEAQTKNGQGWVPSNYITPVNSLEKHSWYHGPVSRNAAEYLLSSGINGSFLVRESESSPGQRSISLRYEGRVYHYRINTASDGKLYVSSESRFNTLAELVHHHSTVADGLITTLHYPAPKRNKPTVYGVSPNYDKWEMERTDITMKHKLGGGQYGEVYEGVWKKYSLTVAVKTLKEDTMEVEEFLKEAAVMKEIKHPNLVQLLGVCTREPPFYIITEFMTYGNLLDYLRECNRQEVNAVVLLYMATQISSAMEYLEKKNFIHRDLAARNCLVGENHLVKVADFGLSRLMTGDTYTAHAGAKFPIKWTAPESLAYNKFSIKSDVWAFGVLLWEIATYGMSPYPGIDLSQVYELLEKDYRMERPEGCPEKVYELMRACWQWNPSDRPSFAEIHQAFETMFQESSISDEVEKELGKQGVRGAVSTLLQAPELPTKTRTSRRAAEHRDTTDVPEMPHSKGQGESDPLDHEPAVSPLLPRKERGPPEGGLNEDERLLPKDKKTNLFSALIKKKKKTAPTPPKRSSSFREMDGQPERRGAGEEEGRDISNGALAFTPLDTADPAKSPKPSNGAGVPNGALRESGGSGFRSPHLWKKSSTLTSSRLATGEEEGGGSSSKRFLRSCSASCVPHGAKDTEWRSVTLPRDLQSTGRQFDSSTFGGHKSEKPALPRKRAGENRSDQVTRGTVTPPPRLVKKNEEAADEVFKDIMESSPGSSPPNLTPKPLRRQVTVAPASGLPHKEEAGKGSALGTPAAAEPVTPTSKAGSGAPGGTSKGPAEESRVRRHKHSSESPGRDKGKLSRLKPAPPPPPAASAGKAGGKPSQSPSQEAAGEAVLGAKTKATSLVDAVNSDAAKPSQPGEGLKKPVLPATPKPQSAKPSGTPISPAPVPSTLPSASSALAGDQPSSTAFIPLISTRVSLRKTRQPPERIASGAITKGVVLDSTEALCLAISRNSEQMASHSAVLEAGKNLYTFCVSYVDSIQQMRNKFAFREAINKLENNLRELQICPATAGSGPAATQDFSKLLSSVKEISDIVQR
Chain of off-target kinases (Homo sapiens, UniProt P50613) (P50613 whole entry): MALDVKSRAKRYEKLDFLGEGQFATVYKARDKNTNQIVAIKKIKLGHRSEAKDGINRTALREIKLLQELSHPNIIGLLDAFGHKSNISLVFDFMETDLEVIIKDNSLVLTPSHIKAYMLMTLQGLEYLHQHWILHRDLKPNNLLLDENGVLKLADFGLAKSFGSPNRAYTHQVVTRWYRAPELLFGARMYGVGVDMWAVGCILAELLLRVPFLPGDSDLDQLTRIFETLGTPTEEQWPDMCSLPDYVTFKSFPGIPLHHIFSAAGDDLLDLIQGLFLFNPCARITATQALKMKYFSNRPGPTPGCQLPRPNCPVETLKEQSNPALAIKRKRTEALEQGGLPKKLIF
Chain of off-target kinases (Homo sapiens, UniProt Q9Y572) (Q9Y572 whole entry): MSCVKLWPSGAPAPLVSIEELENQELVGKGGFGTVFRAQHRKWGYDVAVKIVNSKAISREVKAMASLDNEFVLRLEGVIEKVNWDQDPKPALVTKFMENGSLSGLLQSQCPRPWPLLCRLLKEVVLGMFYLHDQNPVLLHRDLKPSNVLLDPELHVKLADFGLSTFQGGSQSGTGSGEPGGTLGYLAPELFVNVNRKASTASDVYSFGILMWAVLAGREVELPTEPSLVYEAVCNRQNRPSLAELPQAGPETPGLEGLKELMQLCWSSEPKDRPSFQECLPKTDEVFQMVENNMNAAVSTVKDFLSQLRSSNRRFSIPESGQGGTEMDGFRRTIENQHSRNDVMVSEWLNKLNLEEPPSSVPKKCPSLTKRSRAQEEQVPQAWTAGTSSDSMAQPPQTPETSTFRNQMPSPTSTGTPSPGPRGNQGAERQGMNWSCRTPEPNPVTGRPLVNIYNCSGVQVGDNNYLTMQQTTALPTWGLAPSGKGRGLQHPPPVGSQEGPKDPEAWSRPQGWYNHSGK

For `N#Cc1cc(-c2ncnc(Nc3ccc(N4CCN(C5COC5)CC4)cc3)n2)ccc1OC1CCOCC1` [Compound 1, 5-(4-((4-(4-(oxetan-3-yl)piperazin-1-yl)phenyl)amino)-1,3,5-triazin-2-yl)-2-((tetrahydro-2H-pyran-4-yl)oxy)benzonitrile], which inhibition (off-target kinases [1]; read-out: % Inhibition 1) is on record?
The inhibition was 59%.

And the inhibition (off-target kinases [1]; read-out: % Inhibition 2)?
Its inhibition is 55%.

What about the inhibition (off-target kinases [1]; read-out: % Inhibition Avg) of the same compound?
The inhibition was 57%.

What about the inhibition (off-target kinases [2]; read-out: % Inhibition 1) of the same compound?
Its inhibition is 12%.

What about the inhibition (off-target kinases [2]; read-out: % Inhibition 2) of the same compound?
The inhibition was 9%.

And the inhibition (off-target kinases [2]; read-out: % Inhibition Avg)?
Its inhibition is 11%.

And the inhibition (off-target kinases [3]; read-out: % Inhibition 1)?
The inhibition was 33%.

And the inhibition (off-target kinases [3]; read-out: % Inhibition 2)?
Its inhibition is 38%.

What about the inhibition (off-target kinases [3]; read-out: % Inhibition Avg) of the same compound?
Its inhibition is 35%.

What about the inhibition (off-target kinases [4]; read-out: % Inhibition 1) of the same compound?
The inhibition was 48%.

And the inhibition (off-target kinases [4]; read-out: % Inhibition 2)?
Its inhibition is 51%.

What about the inhibition (off-target kinases [4]; read-out: % Inhibition Avg) of the same compound?
The inhibition was 49%.

And the inhibition (off-target kinases [5]; read-out: % Inhibition 1)?
The inhibition was 28%.

What about the inhibition (off-target kinases [5]; read-out: % Inhibition 2) of the same compound?
The inhibition was 36%.

What about the inhibition (off-target kinases [5]; read-out: % Inhibition Avg) of the same compound?
Its inhibition is 32%.

What about the inhibition (off-target kinases [6]; read-out: % Inhibition 1) of the same compound?
The inhibition was 21%.

What about the inhibition (off-target kinases [6]; read-out: % Inhibition 2) of the same compound?
The inhibition was 21%.

What about the inhibition (off-target kinases [6]; read-out: % Inhibition Avg) of the same compound?
Its inhibition is 21%.

What about the inhibition (off-target kinases [7]; read-out: % Inhibition 1) of the same compound?
Its inhibition is 12%.

And the inhibition (off-target kinases [7]; read-out: % Inhibition 2)?
The inhibition was 8%.

And the inhibition (off-target kinases [7]; read-out: % Inhibition Avg)?
Its inhibition is 10%.

What about the inhibition (off-target kinases [8]; read-out: % Inhibition 1) of the same compound?
The inhibition was 27%.

What about the inhibition (off-target kinases [8]; read-out: % Inhibition 2) of the same compound?
The inhibition was 31%.

And the inhibition (off-target kinases [8]; read-out: % Inhibition Avg)?
Its inhibition is 29%.

What about the inhibition (off-target kinases [9]; read-out: % Inhibition 1) of the same compound?
Its inhibition is 17%.

What about the inhibition (off-target kinases [9]; read-out: % Inhibition 2) of the same compound?
Its inhibition is 14%.

What about the inhibition (off-target kinases [9]; read-out: % Inhibition Avg) of the same compound?
Its inhibition is 15%.

What about the inhibition (off-target kinases [10]; read-out: % Inhibition 1) of the same compound?
Its inhibition is -1%.

And the inhibition (off-target kinases [10]; read-out: % Inhibition 2)?
Its inhibition is 1%.

What about the inhibition (off-target kinases [10]; read-out: % Inhibition Avg) of the same compound?
The inhibition was 0%.

And the inhibition (off-target kinases [11]; read-out: % Inhibition 1)?
Its inhibition is 2%.

What about the inhibition (off-target kinases [11]; read-out: % Inhibition 2) of the same compound?
Its inhibition is 5%.

And the inhibition (off-target kinases [11]; read-out: % Inhibition Avg)?
The inhibition was 3%.
